Test results taken from patent publication US10190093B2, “Artificial oocyte activation” (The Curators of the University of Missouri, priority 2013, dated 2019).
Marks after values point to notes of the source that are not given here.

Key:
MII oocytes = assay: Intracellular calcium measurement (fura-2); type: cell-based, pig; settings: oocytes incubated with thimerosal, positive control
Method: The zonae pellucidae were removed after maturation and zona-free oocytes were loaded with the Ca^2+ indicator dye, fura-2. For this purpose, they were incubated in the presence of […] of the acetoxymethyl ester form of the dye and 0.02% pluronic F-127 for 40-50 min (both from Invitrogen). The dye loaded oocytes were transferred into a chamber with a cover-glass bottom and the chamber was then placed on the heated stage of an inverted microscope. Changes in the intracellular free Ca^2+ concentration were recorded using InCytIm2, a dual-wavelength fluorescence imaging system (Intracellular Imaging, Inc.; Cincinnati, Ohio). During measurements the emitted fluorescence was detected at 510 nm after exciting the dye alternately at 340 and 380 nm. The ratio of the two emitted fluorescence intensities was calculated and the data are presented as fluorescence ratio values. Ratios of 1.0 and 5.0 correspond to about 100 and 1,200 nM Ca^2+, respectively. In each treatment group the measurements were repeated at least 5 times using different oocytes.

SCNT embryos = assay: In vitro development of SCNT embryos treated with Scriptaid or TPEN; type: cell-based, pig; settings: SCNT + Scriptaid
Method: Activated oocytes were washed three times in PZM3 then incubated at 38.5° C., 5% CO2 until the embryos were examined on either day 2, 6 or 7. At the end of the culture, where applicable, the frequency of cleaved embryos and blastocysts, and total cell number in the blastocysts were recorded. Hoechst 33342 (1.2 mg/mL) was used to stain nuclei and the embryos were then evaluated by epi-fluorescence microscopy.
Next, the optimal concentration and duration of TPEN ([…], 30 min) was used to artificially activate reconstructed SCNT embryos. […] Thus lower concentrations of TPEN (5-10 μM) can enhance embryo development when introduced after conventional oocyte activation.

Compound | intracellular Ca2+ increase (MII oocytes) | % blastocysts (SCNT embryos) [%^b]
C[CH2][Hg][S]c1ccccc1C(=O)[O-].[Na+] [thimerosal] | could induce Ca^2+ increase | –
O=C(CCCCCN1C(=O)c2cccc3cccc(c23)C1=O)NO [Scriptaid] | – | 22.7
